Data published in PubChem BioAssay (NCI).
Several values for one entry are separate records, joined by “and”; a condition that tells them apart may be missing. Identical values can stand only once.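 Step 1: Grow cells in 96-well plates. Step 2: Expose to compound for 48 hours at 5 concentrations. Step 3: Interpolate endpoints linearly; if unreached, use highest concentration. Abbreviation: GI50, concentration required for 50% inhibition of growth. TGI marks complete inhibition of growth.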

Assays:
Experiment in all cases: inhibition of tumour cell growth, NCI panel, 48 h
COLO 205 colon = test system: COLO 205 colon
SK-OV-3 ovarian = test system: SK-OV-3 ovarian
UO-31 renal = test system: UO-31 renal
SW-620 colon = test system: SW-620 colon
786-0 renal = test system: 786-0 renal
MDA-MB-231 breast = test system: MDA-MB-231 breast
HCC-2998 colon = test system: HCC-2998 colon
SF-268 CNS = test system: SF-268 CNS
SF-295 CNS = test system: SF-295 CNS
OVCAR-8 ovarian = test system: OVCAR-8 ovarian

Compound	GI50 (COLO 205 colon)	TGI (COLO 205 colon)	GI50 (SK-OV-3 ovarian)	TGI (SK-OV-3 ovarian) [µM]	GI50 (UO-31 renal)	TGI (UO-31 renal)	GI50 (SW-620 colon)	TGI (SW-620 colon)	GI50 (786-0 renal)	TGI (786-0 renal)	GI50 (MDA-MB-231 breast)	TGI (MDA-MB-231 breast)	GI50 (HCC-2998 colon)	TGI (HCC-2998 colon)	GI50 (SF-268 CNS)	TGI (SF-268 CNS)	GI50 (SF-295 CNS)	TGI (SF-295 CNS)	GI50 (OVCAR-8 ovarian)	TGI (OVCAR-8 ovarian) [µM]
COc1cccc(C2=C(c3cn(C)c4c(C)cccc34)C(=O)NC2=O)c1	> 25 µM	> 25 µM	> 25 µM	> 25	> 20.2 µM	> 25 µM	> 25 µM	> 25 µM	15.8 µM	> 25 µM	24.5 µM	> 25 µM	> 25 µM	> 25 µM	> 25 µM	> 25 µM	17.4 µM	> 25 µM	> 25 µM	> 25
Cc1cc(N)c2cc(NC(=O)/C=C\c3ccccc3Cl)ccc2n1	0.266 µM	0.597 µM	1.85 µM	3.27	1.78 µM	3.22 µM	0.214 µM	0.478 µM	0.924 µM	2.42 µM	1.21 µM	2.47 µM	0.485 µM	1.74 µM	1.44 µM	2.97 µM	1.31 µM	2.71 µM	1.61 µM	3.12
O=C(N/N=C/c1coc2ccc(Cl)cc2c1=O)c1cc(O)c(O)c(O)c1	55.7 µM	> 100 µM	> 100 µM	> 100	40 µM	> 100 µM	25.8 µM	97.4 µM	23.4 µM	66 µM	19.3 µM	45 µM	15.9 µM	35.3 µM	> 100 µM	> 100 µM	45.8 µM	> 100 µM	18.6 µM	> 100
COc1cc2c(cc1OCCCN1CCN(CCCOc3cc4c(cc3OC)C(=O)N3C[C@H](F)C[C@H]3C=N4)CC1)N=C[C@@H]1C[C@@H](F)CN1C2=O	0.0373 µM	0.193 µM	0.07 µM	> 100	0.823 µM	2.65 µM	0.0746 µM	10.4 µM	0.0263 µM	0.763 µM	0.116 µM	0.852 µM	0.121 µM	0.357 µM	0.0248 µM	5.94 µM	0.0457 µM	> 100 µM	0.134 µM	16.2
CCOC(=O)c1ccc(N[C@@H]2c3cc4c(cc3C(c3cc(OC)c(O)c(OC)c3)[C@H]3C(=O)OCC32)OCO4)cc1 (stereo partly drawn)	0.833 µM	7.68 µM	0.37 µM	5.16	0.394 µM	0.982 µM and 3.4 µM	0.536 µM	28.4 µM	0.199 µM and 0.492 µM	0.66 µM and 2.12 µM		4.76 µM	0.868 µM	3.69 µM	0.394 µM	15.7 µM	0.238 µM and 0.241 µM	0.904 µM and 2.2 µM	0.479 µM	6.49
O=[N+]([O-])c1cc2c(ccc3ccccc32)o1	0.268 µM	1.04 µM	0.571 µM	6.25	0.403 µM	2.82 µM	0.404 µM	5.91 µM	0.72 µM	3.63 µM	0.442 µM	2.89 µM	0.252 µM	0.823 µM	0.455 µM	9.73 µM	0.347 µM	3.34 µM	0.55 µM	5.83
O=C(Nc1ccc(Br)cc1)c1cc(Br)ccc1O	1.66 µM and 1.71 µM	3.1 µM and 3.25 µM	0.747 µM and 1.8 µM		0.247 µM and 0.767 µM	2.16 µM and 9.78 µM	0.986 µM and 2 µM	8.61 µM and 6.87 µM	0.504 µM and 1.4 µM	2.84 µM and 4.74 µM	0.622 µM and 1.43 µM	3.22 µM and 7.06 µM	2.36 µM and 3.46 µM	7.67 µM and 35.7 µM	0.489 µM and 2.05 µM	26.6 µM and 13.4 µM	0.712 µM and 1.39 µM	2.3 µM and 4.08 µM	0.554 µM and 2.65 µM	> 82.8
CCOC(=O)c1c(C)n(Cc2ccc(Cl)cc2Cl)c2c1cc(O)c1[nH]c(Cc3ccccc3)nc12	5.04 µM	30.1 µM	16.3 µM	32	3.75 µM	16.6 µM	2.21 µM	6.02 µM	3.67 µM	13.7 µM	3.61 µM	12.5 µM	2.41 µM	5.23 µM	2.59 µM	6.21 µM	5.92 µM	26.2 µM	3.19 µM	11
O=C1C=CC(=O)N1c1ccc2ccccc2c1	2.01 µM	4.22 µM	27.4 µM	78.5	12.4 µM	25.1 µM	1.79 µM	3.62 µM	17.2 µM	31.6 µM	16.1 µM	33 µM	17.8 µM	32.8 µM	14.5 µM	28.3 µM	> 100 µM	> 100 µM	19.2 µM	42.3
Cc1ccc(-c2csc3ncnc(Nc4cccc(O)c4)c23)cc1	36.4 µM	> 100 µM	38.6 µM	> 100	35.5 µM	> 100 µM	42.4 µM	> 100 µM	19.9 µM	42.8 µM	> 100 µM	> 100 µM	17.2 µM	34.1 µM	> 100 µM	> 100 µM	2.13 µM	24.7 µM	32.3 µM	> 100
O=C(NCCc1nccs1)c1cnc2c(S)cccc2c1	1.56 µM	3.75 µM	3.56 µM	15	3.26 µM	16 µM	3.62 µM	28.7 µM	5.33 µM	36 µM	3.33 µM	56.4 µM	10.5 µM	29.1 µM	3.66 µM	27.1 µM	2.8 µM	17.1 µM	4.95 µM	57.4
COc1cccc2c1C(=O)c1c(O)c3c(c(O)c1C2=O)C[C@@](O)(C(=O)CO)C[C@@H]3OC1CC2C(OCN2CN2COC3C(C)OC(O[C@H]4C[C@](O)(C(=O)CO)Cc5c(O)c6c(c(O)c54)C(=O)c4c(OC)cccc4C6=O)CC32)C(C)O1 (stereo partly drawn)	0.00664 µM	0.0216 µM	0.00699 µM	0.0207	0.00304 µM	0.0283 µM	0.00577 µM	> 1 µM	0.00274 µM	0.0343 µM	0.0156 µM	0.072 µM	0.0138 µM	0.0441 µM	0.00258 µM	0.0469 µM	0.0024 µM	0.0259 µM	0.0113 µM	> 1
